# From patent US20190211002A1, “NOVEL TRIAZOLE DERIVATIVES” (Bayer CropScience Aktiengesellschaft, priority 2016, published 2019)
# Assays:
# Septoria tritici = test: Example G: in vivo 5 days preventive Septoria tritici test (wheat), comparison vs. WO-A 2010/146116; conditions: inoculated 5 days after spraying, evaluated 21 days after inoculation
# Description: • Solvent: 49 parts by weight of N,N-dimethylacetamide • Emulsifier: 1 part by weight of alkylaryl polyglycol ether To produce a suitable preparation of active compound, 1 part by weight of active compound or active compound combination is mixed with the stated amounts of solvent and emulsifier, and the concentrate is diluted with water to the desired concentration. To test for preventive and long-lasting activity, young plants are sprayed with a preparation of active compound or active compound combination at the stated rate of application. After the spray coating has been dried, the plants are placed in the greenhouse at a temperature of approximately 15° C. and a relative atmospheric humidity of approximately 80%. 5 days later the plants are sprayed with a spore suspension of Septoria tritici. The plants remain for 48 hours in an incubation cabinet at approximately 20° C. and a relative atmospheric humidity of approximately 100% and afterwards for 60 hours at approximately 15° C. in a translucent incubation cabinet at a relative atmospheric humidity of approximately 100%. Then the plants are placed in the greenhouse at a temperature of approximately 15° C. and a relative atmospheric humidity of approximately 80%. The test is evaluated 21 days after the inoculation.
# Sphaerotheca fuliginea [1] = test: Example C: in vivo preventive test on Sphaerotheca fuliginea (powdery mildew on cucurbits); conditions: Podosphaera fuliginea, 360 h; 500 ppm of active ingredient; gherkin; preventive spray; evaluated 15 days after inoculation; read-out: efficacy
# Description: The test is evaluated 15 days after the inoculation.
# Uromyces appendiculatus = test: Example D: in vivo preventive test on Uromyces appendiculatus (bean rust); conditions: 264 h, 500 ppm of active ingredient, preventive spray, evaluated 11 days after inoculation, read-out: efficacy
# Description: (§1) The test is evaluated 11 days after the inoculation.
# [2] = tested on: Blumeria graminis f sp. hordei; test: Example E: in vivo preventive Blumeria test (barley); conditions: 168 h, 500 ppm of active ingredient, preventive spray, evaluated 7 days after inoculation, read-out: efficacy
# Description: • Solvent: 49 parts by weight of N,N-dimethylacetamide • Emulsifier: 1 part by weight of alkylaryl polyglycol ether To produce a suitable preparation of active compound, 1 part by weight of active compound or active compound combination was mixed with the stated amounts of solvent and emulsifier, and the concentrate was diluted with water to the desired concentration. To test for preventive activity, young plants were sprayed with the preparation of active compound or active compound combination at the stated rate of application. After the spray coating had been dried, the plants were dusted with spores of Blumeria graminis f sp. hordei. The plants were placed in the greenhouse at a temperature of approximately 18° C. and a relative atmospheric humidity of approximately 80% to promote the development of mildew pustules. The test was evaluated 7 days after the inoculation.
# Puccinia recondita = test: Example A: in vivo preventive test on Puccinia recondita (brown rust on wheat); conditions: 264 h, 500 ppm of active ingredient, preventive spray, evaluated 11 days after inoculation, read-out: efficacy
# Description: as §1
# [3] = LogP by HPLC on reversed phase columns (EEC directive 79/831 Annex V.A8); format: physicochemical; conditions: method [a]: LC-UV, acidic range, 0.1% formic acid in water and acetonitrile as eluent; for chromatographic logP: reversed phase HPLC column
# Description: Measurement of LogP values was performed according to EEC directive 79/831 Annex V.A8 by HPLC (High Performance Liquid Chromatography) on reversed phase columns with the following methods: • ^[a] […] Lambda-max-values were determined using UV-spectra from 200 nm to 400 nm and the peak values of the chromatographic signals.
# Sphaerotheca fuliginea [4] = test: Example H: in vivo preventive test on Sphaerotheca (cucumbers), comparison vs. WO-A 2010/146116; conditions: evaluated 7 days after inoculation
# Description: To produce a suitable preparation of active compound, 1 part by weight of active compound is mixed with the stated amounts of solvent and emulsifier, and the concentrate is diluted with water to the desired concentration. To test for preventive activity, young plants are sprayed with the preparation of active compound at the stated rate of application. After the spray coating has dried on, the plants are inoculated with an aqueous spore suspension of Sphaerotheca fuliginea. The plants are then placed in a greenhouse at approximately 23° C. and a relative atmospheric humidity of approximately 70%. The test is evaluated 7 days after the inoculation.
# Sphaerotheca fuliginea [5] = test: Example F: in vivo preventive test on Sphaerotheca (cucumbers), comparison vs. known phenoxy-phenyl compounds; conditions: rate of application 10 ppm, evaluated 7 days after inoculation
# Description: • Solvent: 24.5 parts by weight of acetone • 24.5 parts by weight of dimethylacetamide • Emulsifier: 1 part by weight of alkylaryl polyglycol ether
# To produce a suitable preparation of active compound, 1 part by weight of active compound is mixed with the above stated amounts of solvent and emulsifier, and the concentrate is diluted with water to the desired concentration.
# To test for preventive activity, young plants are sprayed with the preparation of active compound at the stated rate of application. After the spray coating has dried on, the plants are inoculated with an aqueous spore suspension of Sphaerotheca fuliginea. The plants are then placed in a greenhouse at approximately 23° C. and a relative atmospheric humidity of approximately 70%.
# The test is evaluated 7 days after the inoculation.
chromatographic logP [3],LogP [3],SMILES,Efficacy in % (Septoria tritici; rate of application 100 ppm) [%],Efficacy in % (Septoria tritici; rate of application 500 ppm) [%],pest or weed control at 500 ppm (Sphaerotheca fuliginea [1]) [%],pest or weed control at 500 ppm (Uromyces appendiculatus) [%],pest or weed control at 500 ppm [2] [%],pest or weed control at 500 ppm (Puccinia recondita) [%],Efficacy in % (Sphaerotheca fuliginea [4]; rate of application 10 ppm) [%],Efficacy in % (Sphaerotheca fuliginea [4]; rate of application 100 ppm) [%],Efficacy in % (Sphaerotheca fuliginea [5]) [%]
3.54,–,FC(F)(F)c1nc(Oc2ccc(S(F)(F)(F)(F)F)cc2)ccc1C1(Cn2cncn2)OCCO1 [I.11],71,100,90 to 100,90 to 100,70 to 79,90 to 100,–,–,–
3.35,–,FC(F)(F)c1nc(Oc2ccc(Br)cc2)ccc1C1(Cn2cncn2)OCCO1 [I.02],93,100,90 to 100,90 to 100,90 to 100,90 to 100,–,–,–
3.25,–,"FC(F)(F)c1nc(Oc2ccc(Cl)cc2)ccc1C1(Cn2cncn2)OCCO1 [I.04, 6-(4-chlorophenoxy)-3-[2-(1,2,4-triazol-1-ylmethyl)-1,3-dioxolan-2-yl]-2-(trifluoromethyl)-pyridine]",86,100,90 to 100,90 to 100,90 to 100,90 to 100,73,100,73
3.29,–,"FC(F)(F)c1ccc(Oc2ccc(C3(Cn4cncn4)OCCO3)c(C(F)(F)F)n2)cc1 [I.14, 3-[2-(1,2,4-triazol-1-ylmethyl)-1,3-dioxolan-2-yl]-2-(trifluoromethyl)-6-[4-(trifluoromethyl)phenoxy]pyridine]",100,100,90 to 100,90 to 100,90 to 100,90 to 100,75,100,–

# Further lines, the compound ahead of its results:
SMILES,chromatographic logP [3],LogP [3],Efficacy in % (Septoria tritici; rate of application 100 ppm) [%],Efficacy in % (Septoria tritici; rate of application 500 ppm) [%],pest or weed control at 500 ppm (Sphaerotheca fuliginea [1]) [%],pest or weed control at 500 ppm (Uromyces appendiculatus) [%],pest or weed control at 500 ppm [2] [%],pest or weed control at 500 ppm (Puccinia recondita) [%],Efficacy in % (Sphaerotheca fuliginea [4]; rate of application 10 ppm) [%],Efficacy in % (Sphaerotheca fuliginea [4]; rate of application 100 ppm) [%],Efficacy in % (Sphaerotheca fuliginea [5]) [%]
"Clc1ccc(Oc2cc(Cl)c(C3(Cn4cncn4)OCCO3)cn2)cc1 [drawing 80, reference compound]",–,–,50,80,–,–,–,–,–,–,–
"Clc1ccc(Oc2cc(Cl)c(C3(Cn4cncn4)OCCO3)cn2)cc1 [drawing 85, reference compound]",–,–,–,–,–,–,–,–,14,100,–
"FC(F)(F)c1nc(Oc2ccc(Cl)cc2)ccc1C1(Cn2nc[nH]c2=S)OCCO1 [I-S.02, 2-[[2-[6-(4-chlorophenoxy)-2-(trifluoromethyl)-3-pyridyl]-1,3-dioxolan-2-yl]methyl]-4H-1,2,4-triazole-3-thione]",3.06,–,–,–,90 to 100,90 to 100,90 to 100,90 to 100,–,–,–
"FC(F)(F)c1ccc(Oc2ccc(C3(Cn4nc[nH]c4=S)OCCO3)c(C(F)(F)F)n2)cc1 [I-S.01, 2-[[2-[2-(trifluoromethyl)-6-[4-(trifluoromethyl)phenoxy]-3-pyridyl]-1,3-dioxolan-2-yl]methyl]-4H-1,2,4-triazole-3-thione]",3.18,–,–,–,90 to 100,90 to 100,90 to 100,90 to 100,–,–,–
"CC1COC(Cn2cncn2)(c2ccc(Oc3ccc(Br)cc3)nc2C(F)(F)F)O1 (centres unmarked) [I.16, 6-(4-bromophenoxy)-3-[4-methyl-2-(1,2,4-triazol-1-ylmethyl)-1,3-dioxolan-2-yl]-2-(trifluoromethyl)pyridine]",3.59,3.55,–,–,90 to 100,90 to 100,90 to 100,90 to 100,–,–,–
CC(O)(Cn1cncn1)c1ccc(Oc2ccc(Cl)cc2)cc1C(F)(F)F (centres unmarked) [reference compound],–,–,–,–,–,–,–,–,–,–,30
"CCC1COC(Cn2cncn2)(c2ccc(Oc3ccc(C(F)(F)F)cc3)nc2C(F)(F)F)O1 (centres unmarked) [I.07, 3-[4-ethyl-2-(1,2,4-triazol-1-ylmethyl)-1,3-dioxolan-2-yl]-2-(trifluoromethyl)-6-[4-(trifluoromethyl)phenoxy]pyridine]",3.96,–,–,–,90 to 100,90 to 100,90 to 100,90 to 100,–,–,–
